Results from patent US11850287B2, “Heterocyclic acyl hydrazone linkers, methods and uses thereof” (Ontario Institute for Cancer Research (OICR), priority 2017, dated 2023).

Experiments:
[1] = Half-life of model acyl hydrazones in a simulated lysosomal environment (pH 4.5); format: physicochemical; conditions: simulated lysosomal environment (acidic buffer)
Description: Ranging from the intracellularly readily cleavable linkers such as the acyl hydrazones to the relatively stable non-cleavable linkers, having the ability to tune the rate of release of the payload and to improve plasma stability provides opportunities not only to target a greater variety of diseased cells, but also to design agents tailored to achieve a better therapeutic window. Towards the goal of developing enhanced control of ADC linker stability, several model heterocyclic acyl hydrazones whose lability is modulated either by steric or stereoelectronic effects have been prepared.
Towards the goal developing enhanced control of ADC linker stability, several model cyclic acyl hydrazones whose lability is modulated by different substitutions have been prepared. Exemplary acyl hydrazones containing a substituted phenyl group adjacent to the imine carbon have been synthesized. […] Analogues of the heterocyclic linker compounds in Table 1 have been incorporated into linkers, using a similar strategy as employed in the linker synthesis in Mylotarg, as described in greater detail herein below

SKOV3 ovarian cells = test: Cytotoxicity against SKOV3 ovarian cancer cells (ATP content, CellTiter-Glo); format: cell-based; conditions: DAR ratio 3.39 (Synagis-SMCC-DM1), 3.50 (Trastuzumab-SMCC-DM1), 6.59 (IIIa), 6.99 (IIIc)
Description: SKOV3 ovarian cells are incubated with the effectors for a period corresponding to 2 to 3 times their estimated doubling time and the amount of viable cells is determine by measuring ATP content in the wells. […] All ADCs are diluted in DPBS to 6× the highest concentration tested, followed by 10 3-fold serial dilutions in DPBS for a total of 11 concentration points. Each point is added to triplicate wells. DPBS is added in wells to measure the maximum growth. Cells are diluted at their appropriate seeding density (ranging from 150 to 1000 cells per well) in complete media supplemented with glutamine 2 mM, serum and antibiotic cocktail. They are distributed in white, opaque bottom, tissue-culture treated 384 well plates and incubated for 24 hrs at 37° C.+5% CO2. […] Total ATP is measured using CellTiter-Glo reagent from Promega as recommended by the supplier. […] Signal output is measured on a luminescence plate reader (envision, Perkin Elmer) set at an integration time of 0.1 sec. […]
Each concentration point (S) is normalized to the negative control wells (NC) and expressed as % survival (NC-S/NC×100). Potency (IC50) and efficacy are calculated from a non-linear curve fit of the points versus log of the concentrations without constrain on the slope. Refined data are analysed using Prism software.

Compound | half-life [1] [h] | IC50 (SKOV3 ovarian cells) [nM]
CC(=O)N/N=C1\CCOc2ccc(F)cc21 [E] | 2.32 | 
Synagis-SMCC-DM1: negative control ADC |  | 9.64
